6 compounds from ChEMBL document CHEMBL1201862, “PubChem BioAssay data set” (2004) can be followed below.

Active and inactive are the calls of the source.

Test [1] is described as follows: inhibitors of Vif binding to APOBEC3G peptide, primary screen, biochemical, TR-FRET, GST-Vif 1-94, biotin-A3G peptide, dose response retest (AID 1117319).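 Further: TR-FRET signal of purified GST-Vif binding a biotinylated A3G peptide; inhibitors lower the FRET signal by blocking Vif and A3G binding.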 The format is functional.
The target in a further test is T1, Streptokinase A (Streptococcus pyogenes serotype M1, UniProt P10520).
T1 sequence (P10520 whole entry): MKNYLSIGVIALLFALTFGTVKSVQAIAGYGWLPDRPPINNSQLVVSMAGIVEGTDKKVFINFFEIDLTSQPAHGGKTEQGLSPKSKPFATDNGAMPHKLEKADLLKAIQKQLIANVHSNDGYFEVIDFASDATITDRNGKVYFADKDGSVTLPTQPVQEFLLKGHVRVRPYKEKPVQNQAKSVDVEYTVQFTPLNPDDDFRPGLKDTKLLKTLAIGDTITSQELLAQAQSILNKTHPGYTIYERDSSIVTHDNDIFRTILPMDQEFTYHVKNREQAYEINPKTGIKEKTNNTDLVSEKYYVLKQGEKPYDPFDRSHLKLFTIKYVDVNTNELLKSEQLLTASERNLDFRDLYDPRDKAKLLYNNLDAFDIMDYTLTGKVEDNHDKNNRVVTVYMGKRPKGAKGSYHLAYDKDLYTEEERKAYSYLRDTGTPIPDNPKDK
The experiment in a line: S. pyogenes streptokinase expression inhibitors, potency, dose response, plasminogen activation absorbance, OD405 (AID 1914).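 Further: secreted streptokinase activity via plasminogen activation per viability signal from cell pellet.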 It is filed as functional, Streptococcus pyogenes M1 GAS.

The next test concerns the target Procathepsin L (Homo sapiens, UniProt P07711). The experiment in a line: cathepsin L inhibitors, dose response, counter-screen for M1/M17 aminopeptidase inhibitor project, biochemical, QFRET, 1536-well (AID 2214).
The target of another test is T2, Leucine aminopeptidase (Plasmodium falciparum 3D7, UniProt Q8IL11).
T2 sequence (Q8IL11 whole entry): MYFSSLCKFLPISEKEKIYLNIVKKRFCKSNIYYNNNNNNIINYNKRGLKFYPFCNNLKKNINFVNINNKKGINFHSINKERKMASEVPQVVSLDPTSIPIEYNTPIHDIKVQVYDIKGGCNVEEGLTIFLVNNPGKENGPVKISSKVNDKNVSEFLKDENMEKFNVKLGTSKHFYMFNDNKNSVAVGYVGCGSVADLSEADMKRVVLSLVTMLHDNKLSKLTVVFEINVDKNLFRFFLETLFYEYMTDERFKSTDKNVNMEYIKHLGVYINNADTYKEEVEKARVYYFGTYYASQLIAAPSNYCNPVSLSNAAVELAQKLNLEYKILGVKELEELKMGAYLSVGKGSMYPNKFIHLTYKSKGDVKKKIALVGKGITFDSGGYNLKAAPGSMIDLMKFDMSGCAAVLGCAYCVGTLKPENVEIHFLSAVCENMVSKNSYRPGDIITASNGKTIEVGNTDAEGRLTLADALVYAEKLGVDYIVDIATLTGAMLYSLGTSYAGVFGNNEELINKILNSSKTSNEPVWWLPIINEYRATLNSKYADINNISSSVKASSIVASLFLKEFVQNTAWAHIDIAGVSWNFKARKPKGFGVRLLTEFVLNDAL
The experiment in a line: P. falciparum M17LAP inhibitors, primary screen, biochemical, fluorogenic H-Leu-NHMec substrate, 1536-well (AID 1619). It is filed as functional.

The next test concerns Streptococcus. The experiment in a line: Group A Streptococcus viability loss, dose response, counter-screen for streptokinase expression inhibitor project, luminescence, BacTiterGlo (AID 1915).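 Further: potency for reduction of bacterial viability or growth.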 It is filed as functional, organism-based.
The target of a further test is T3, Aspartyl aminopeptidase (Plasmodium falciparum 3D7, UniProt Q8I2J3).
T3 sequence (Q8I2J3 whole entry): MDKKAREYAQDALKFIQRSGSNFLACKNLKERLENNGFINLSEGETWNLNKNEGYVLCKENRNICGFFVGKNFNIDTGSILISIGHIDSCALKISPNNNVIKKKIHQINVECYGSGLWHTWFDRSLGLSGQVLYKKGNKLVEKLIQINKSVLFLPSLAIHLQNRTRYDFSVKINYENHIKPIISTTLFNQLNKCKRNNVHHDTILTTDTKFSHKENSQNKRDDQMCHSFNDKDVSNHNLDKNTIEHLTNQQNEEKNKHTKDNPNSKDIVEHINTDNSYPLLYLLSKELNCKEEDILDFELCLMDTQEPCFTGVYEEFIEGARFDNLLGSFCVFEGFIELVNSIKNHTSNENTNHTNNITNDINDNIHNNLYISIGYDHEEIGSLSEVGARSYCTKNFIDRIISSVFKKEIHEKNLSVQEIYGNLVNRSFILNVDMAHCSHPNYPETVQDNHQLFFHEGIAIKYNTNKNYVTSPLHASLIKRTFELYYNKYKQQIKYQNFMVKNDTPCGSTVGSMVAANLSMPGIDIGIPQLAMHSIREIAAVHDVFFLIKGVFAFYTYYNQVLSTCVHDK
The experiment in a line: Counterscreen for inhibitors of M1 and M17 aminopeptidases: QFRET-based biochemical high throughput dose response assay for inhibitors of the Plasmodium falciparum M18 Aspartyl Aminopeptidase (PFM18AAP). [Related PubChem assays: 1619 (Screening assay (M17LAP inhibitors).), 1445 (Screening assay (M1AAP inhibitors).)].

Test [2] relates to Streptococcus sp. 'group A'. The experiment in a line: growth inhibition of control SK(-) GAS strain, dose response, counter-screen for streptokinase expression inhibitor project, luminescence, kanamycin, BacTiterGlo, confirmation (AID 1900). It is filed as functional, organism-based.
Test [3] deals with Mitogen-activated protein kinase 10 (Homo sapiens, UniProt P53779). The experiment in a line: Dose response biochemical screening assay for inhibitors of c-Jun N-Terminal Kinase 3 (JNK3). [Related pubchem assays: 746 ].
Mitogen-activated protein kinase 10, sequence (P53779 whole entry): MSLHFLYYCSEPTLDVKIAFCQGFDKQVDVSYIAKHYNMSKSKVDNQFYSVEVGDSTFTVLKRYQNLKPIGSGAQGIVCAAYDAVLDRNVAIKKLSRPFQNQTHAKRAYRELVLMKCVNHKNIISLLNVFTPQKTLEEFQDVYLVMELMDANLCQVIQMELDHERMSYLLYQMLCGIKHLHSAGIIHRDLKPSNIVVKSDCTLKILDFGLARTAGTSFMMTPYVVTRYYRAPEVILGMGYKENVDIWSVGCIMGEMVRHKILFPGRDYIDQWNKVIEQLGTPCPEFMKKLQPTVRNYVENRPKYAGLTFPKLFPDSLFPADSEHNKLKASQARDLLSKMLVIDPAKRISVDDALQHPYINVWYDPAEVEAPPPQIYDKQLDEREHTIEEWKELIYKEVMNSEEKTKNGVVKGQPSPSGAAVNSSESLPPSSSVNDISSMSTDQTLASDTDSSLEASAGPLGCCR
Test [4] in a line: Jurkat T cell cytotoxicity, dose response, cytotoxicity control for P. falciparum gametocyte viability project, luminescence (AID 1117277).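 Further: potency reflects loss of cellular ATP meaning fewer viable cells.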 The format is functional, cell-based.
Test [5] can be described thus: P. falciparum late gametocyte killing, dose response, luminescence (AID 1117278).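 Further: gametocytes exposed to compound for 24 hours.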 It is filed as functional, cell-based.
Test [6] in a line: HCT116 cell viability decrease, GSK3B pretreatment – CellTiter-Glo, IC50, dose response (AID 1117339). The format is functional. As to conditions: HCT-116.
The nature of test [7]: SNU-C1 cell viability reduction, dose response, CellTiter-Glo luminescence (AID 1117323). The format is functional, cell-based.
Test [8] can be described thus: RKO cell viability reduction, dose response, CellTiter-Glo luminescence (AID 1117322). The format is functional.
Test [9] is described as follows: CellTiter-Glo luminescent dose response of DLD-1 viability loss (AID 1117352). It is filed as functional.
Test [10] can be described thus: cytotoxicity toward HCT116 cells – cell-based, CellTiter-Glo luminescence, IC50, dose response (AID 1117332). It is filed as functional. As to conditions: HCT-116.
A short description of test [11]: Concentration-dependent survival of SW480 colon cancer line, luminescence detection with CellTiter-Glo, half-maximal inhibitory concentration (AID 1117338). The format is functional.
The nature of test [12]: cytotoxicity toward HT-29 cells – cell-based, CellTiter-Glo luminescence, IC50, dose response (AID 1117330). It is filed as functional.
Test [13] can be described thus: cytotoxicity toward Colo320 cells – cell-based, CellTiter-Glo luminescence, IC50, dose response (AID 1117334). The format is functional. As to conditions: COLO 320.
Test [14] can be described thus: P. falciparum 3D7-ScDHODH growth inhibitors, dose response, SYBR Green, dry powder samples (AID 1159570).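 Further: parasite growth measured after 72 hours of compound exposure.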 It is filed as functional, cell-based.
The nature of test [15]: HepG2 cell cytotoxicity, dose response, cytotoxicity control, plate reader, dry powder samples (AID 1159569).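 Further: inhibitor potency with signal falling toward the positive control level.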 It is filed as functional, cell-based.
The nature of test [16]: HepG2 cell cytotoxicity, dose response, cytotoxicity control, cherry-picked samples (AID 1159577). The format is functional, cell-based.
Test [17] in a line: P. falciparum ATP4 D1247Y mutant growth inhibitors, dose response, NITD609-resistant line, SYBR Green, dry powder (AID 1159571).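 Further: parasites synchronized at ring stage by sorbitol before testing.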 The format is functional, cell-based.
Test [18] can be described thus: P. falciparum Dd2 growth inhibitors, dose response, SYBR Green, cherry-picked samples (AID 1159567). It is filed as functional, cell-based.
Test [19] in a line: P. falciparum Dd2 growth inhibitors, dose response, SYBR Green, dry powder samples (AID 1159566).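 Further: potency for growth inhibition with lower SYBR green DNA signal.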 The format is functional, cell-based.

Procathepsin L, sequence (P07711 whole entry): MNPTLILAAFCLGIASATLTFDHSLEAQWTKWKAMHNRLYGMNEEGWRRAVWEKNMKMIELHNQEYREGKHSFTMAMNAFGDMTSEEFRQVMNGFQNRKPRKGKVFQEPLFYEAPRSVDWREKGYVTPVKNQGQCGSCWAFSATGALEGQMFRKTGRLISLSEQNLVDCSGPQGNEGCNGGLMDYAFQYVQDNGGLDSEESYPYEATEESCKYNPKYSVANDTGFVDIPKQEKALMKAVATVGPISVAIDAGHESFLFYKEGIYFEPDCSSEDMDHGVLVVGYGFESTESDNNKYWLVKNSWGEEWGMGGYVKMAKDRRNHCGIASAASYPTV

For `CCC(CC)c1nc2cc(OC)c(OC)cc2c(=O)o1`, in [1], the IC50 was > 100 µM (active).

With `Cn1c(O)cc(=O)nc1SCC(=O)Nc1cccc2ccccc12`, the values for the EC50 (at Streptokinase A; in the test with Streptococcus; in test [2]) were > 150 µM (not active), 24.8 µM (active) and > 150 µM (not active), respectively. Besides, the IC50 against Procathepsin L is > 59.6 µM (not active); on Leucine aminopeptidase, 7.59 µM (active); against Aspartyl aminopeptidase, > 73.5 µM (not active).

As to `Cc1cc(NC(=O)CSC2=Nc3ccccc3C3=NC(Cc4ccccc4)C(=O)N23)[nH]n1` (centres undefined), the IC50 in test [3] is given as 11.3 µM (not active).

For `Cc1cc(C)cc(N2CC(C(=O)O)CC2=O)c1` (centres undefined), the IC50 in test [4] is > 83.4 µM (inactive); in [5], > 109 µM (inactive).

With `CCC=CCC=CCC=CCCCCCCCC(=O)O`, the IC50 in test [6], in [7], in test [8], in test [9], in test [10] and in test [11] was > 20 µM (inactive) throughout. Also, the IC50 in test [12] and in [13] was > 20 µM (inactive) in each case.

`OC[C@H]1[C@@H](c2ccc(-c3cccc(F)c3)cc2)[C@@H]2CN(CCC(F)(F)F)CCCCN12`: the AC50 in [14] was 1.12 µM (active); in test [15], 12.8 µM (active); in test [16], 28.5 µM (active); in [17] it was 0.832 µM (active); in [18], 1.84 µM (active); in test [19], 0.618 µM (active).
